Measurements from patent publication US9549932B2, “2-(morpholin-4-yl)-1,7-naphthyridines” (BAYER PHARMA AKTIENGESELLSCHAFT, priority 2014, dated 2017).
pIC50: −log10 of the molar value.

target: full-length human ATR protein (Homo sapiens (Human), UniProt Q13535); assay: Binding assay ATR (TR-FRET tracer displacement); settings: tracer A, TR-FRET; read-out: ATR binding (tracer A) IC50
From the text: To determine of binding activity of the test compounds, full-length human ATR protein was expressed and purified together with ATRIP as described above. Furthermore, a fluorescently labelled compound (either tracer A or B as described above) was used as a tracer molecule. Detection of the binding event of the tracer was achieved by time-resolved fluorescence energy transfer (TR-FRET). We used an anti-GST-Terbium antibody (CisBio) that binds to the GST-tag at the N-terminus of ATR-kinase. […] Displacement of the fluorescent tracer by a test compound leads to a reduction of the TR-FRET-signal.
For the assay 50 nl of a 100-fold concentrated solution of the test compound in DMSO was pipetted into a black low volume 384well microtiter plate (MTP, Greiner Bio-One, Frickenhausen, Germany). […] The ATR-working solution was incubated for 30 min at 22° C. prior to dispensing to pre-form the complex of antiGST-Tb+GST-ATR+ATRIP. Then, 3 μl of the ATR-working solution were added to the test compound and the mixture was incubated for 10 min at 22° C. to allow pre-binding of the test compounds to ATR/ATRIP. Then, 2 μl of a 100 nM solution of either tracer A or B in assay buffer were added to the ATR-working solution. The resulting mixture was incubated for 30 min at 22° C. […] The dilution series were prepared separately before the assay on the level of the 100 fold concentrated solutions in DMSO by serial 1:3.4 dilutions in duplicate values for each concentration. IC50 values were calculated by a 4 parameter fit using standard software (GraphPad prism or equivalent).

Chain of full-length human ATR protein (Q13535 other isoform, or with tags, fused parts or gaps): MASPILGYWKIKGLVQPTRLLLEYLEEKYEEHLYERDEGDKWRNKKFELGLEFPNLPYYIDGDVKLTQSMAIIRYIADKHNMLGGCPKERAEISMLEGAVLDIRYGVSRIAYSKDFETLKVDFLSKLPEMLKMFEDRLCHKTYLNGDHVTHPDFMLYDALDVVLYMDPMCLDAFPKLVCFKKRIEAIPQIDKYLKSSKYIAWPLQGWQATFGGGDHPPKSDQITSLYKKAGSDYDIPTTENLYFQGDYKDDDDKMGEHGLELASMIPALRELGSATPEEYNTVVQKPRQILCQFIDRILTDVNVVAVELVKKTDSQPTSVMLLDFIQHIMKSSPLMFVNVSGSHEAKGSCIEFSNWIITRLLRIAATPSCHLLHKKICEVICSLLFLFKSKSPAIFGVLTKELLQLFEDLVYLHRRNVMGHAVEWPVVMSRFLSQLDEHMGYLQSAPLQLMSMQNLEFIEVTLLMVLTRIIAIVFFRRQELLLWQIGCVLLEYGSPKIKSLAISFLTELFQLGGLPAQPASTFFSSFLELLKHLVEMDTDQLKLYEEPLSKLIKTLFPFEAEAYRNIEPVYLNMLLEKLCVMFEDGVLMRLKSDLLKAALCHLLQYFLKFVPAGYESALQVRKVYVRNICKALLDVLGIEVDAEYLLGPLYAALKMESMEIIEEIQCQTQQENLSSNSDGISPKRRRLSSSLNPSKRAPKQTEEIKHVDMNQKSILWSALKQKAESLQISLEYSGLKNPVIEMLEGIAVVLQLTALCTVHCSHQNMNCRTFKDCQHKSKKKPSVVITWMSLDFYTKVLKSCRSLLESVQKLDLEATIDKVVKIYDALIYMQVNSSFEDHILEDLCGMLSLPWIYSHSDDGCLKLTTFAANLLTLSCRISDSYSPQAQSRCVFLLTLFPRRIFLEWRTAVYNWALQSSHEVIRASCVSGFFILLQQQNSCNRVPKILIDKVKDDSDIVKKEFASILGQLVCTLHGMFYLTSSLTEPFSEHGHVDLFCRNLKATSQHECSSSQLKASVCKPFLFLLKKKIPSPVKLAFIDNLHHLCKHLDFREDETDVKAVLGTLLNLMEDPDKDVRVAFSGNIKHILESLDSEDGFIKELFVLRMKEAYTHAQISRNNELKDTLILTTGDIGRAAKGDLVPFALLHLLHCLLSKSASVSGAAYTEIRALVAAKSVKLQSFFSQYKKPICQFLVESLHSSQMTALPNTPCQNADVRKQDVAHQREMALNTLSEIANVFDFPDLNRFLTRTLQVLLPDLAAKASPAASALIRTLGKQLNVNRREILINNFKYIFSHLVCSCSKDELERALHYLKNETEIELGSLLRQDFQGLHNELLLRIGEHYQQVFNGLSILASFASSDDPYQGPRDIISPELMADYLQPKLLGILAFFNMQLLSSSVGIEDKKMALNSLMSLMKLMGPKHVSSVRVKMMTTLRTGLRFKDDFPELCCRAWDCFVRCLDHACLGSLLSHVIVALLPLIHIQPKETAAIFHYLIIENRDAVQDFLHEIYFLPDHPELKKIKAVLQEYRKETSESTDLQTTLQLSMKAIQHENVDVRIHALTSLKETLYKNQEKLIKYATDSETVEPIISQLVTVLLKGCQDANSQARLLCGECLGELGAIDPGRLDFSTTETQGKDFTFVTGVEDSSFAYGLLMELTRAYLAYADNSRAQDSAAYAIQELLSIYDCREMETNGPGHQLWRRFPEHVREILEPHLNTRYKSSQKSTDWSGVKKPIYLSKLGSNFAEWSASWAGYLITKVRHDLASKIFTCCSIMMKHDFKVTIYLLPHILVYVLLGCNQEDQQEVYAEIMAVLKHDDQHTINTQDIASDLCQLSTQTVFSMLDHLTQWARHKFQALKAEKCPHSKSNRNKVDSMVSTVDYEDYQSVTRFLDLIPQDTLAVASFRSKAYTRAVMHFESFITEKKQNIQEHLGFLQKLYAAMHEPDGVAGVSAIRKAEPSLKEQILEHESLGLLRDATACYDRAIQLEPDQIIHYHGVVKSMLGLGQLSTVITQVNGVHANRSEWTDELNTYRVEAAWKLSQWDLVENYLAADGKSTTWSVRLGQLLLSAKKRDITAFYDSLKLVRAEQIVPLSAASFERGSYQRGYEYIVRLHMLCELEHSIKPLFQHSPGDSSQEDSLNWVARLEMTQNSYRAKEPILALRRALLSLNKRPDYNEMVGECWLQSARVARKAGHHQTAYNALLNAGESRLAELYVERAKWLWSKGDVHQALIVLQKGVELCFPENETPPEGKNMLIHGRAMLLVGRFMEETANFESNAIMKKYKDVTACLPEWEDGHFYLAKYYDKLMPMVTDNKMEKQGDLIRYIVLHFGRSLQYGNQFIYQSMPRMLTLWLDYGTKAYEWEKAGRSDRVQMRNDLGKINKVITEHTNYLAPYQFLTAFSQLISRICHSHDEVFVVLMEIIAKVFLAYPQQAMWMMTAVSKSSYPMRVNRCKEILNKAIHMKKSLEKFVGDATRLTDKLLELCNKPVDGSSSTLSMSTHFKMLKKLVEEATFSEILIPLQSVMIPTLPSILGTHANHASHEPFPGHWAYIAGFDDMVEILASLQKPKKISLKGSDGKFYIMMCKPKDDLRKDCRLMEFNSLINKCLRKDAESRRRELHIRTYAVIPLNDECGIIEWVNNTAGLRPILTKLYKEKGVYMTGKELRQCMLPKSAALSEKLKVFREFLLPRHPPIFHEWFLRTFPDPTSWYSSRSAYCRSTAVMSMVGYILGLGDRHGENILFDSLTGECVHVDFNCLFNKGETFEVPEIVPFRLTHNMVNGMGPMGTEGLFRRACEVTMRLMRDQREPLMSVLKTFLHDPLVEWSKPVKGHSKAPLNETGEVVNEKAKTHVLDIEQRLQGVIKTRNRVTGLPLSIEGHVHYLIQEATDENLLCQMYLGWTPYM
Chain of full-length human ATR protein (Q8WXE1 other isoform, or with tags, fused parts or gaps partner): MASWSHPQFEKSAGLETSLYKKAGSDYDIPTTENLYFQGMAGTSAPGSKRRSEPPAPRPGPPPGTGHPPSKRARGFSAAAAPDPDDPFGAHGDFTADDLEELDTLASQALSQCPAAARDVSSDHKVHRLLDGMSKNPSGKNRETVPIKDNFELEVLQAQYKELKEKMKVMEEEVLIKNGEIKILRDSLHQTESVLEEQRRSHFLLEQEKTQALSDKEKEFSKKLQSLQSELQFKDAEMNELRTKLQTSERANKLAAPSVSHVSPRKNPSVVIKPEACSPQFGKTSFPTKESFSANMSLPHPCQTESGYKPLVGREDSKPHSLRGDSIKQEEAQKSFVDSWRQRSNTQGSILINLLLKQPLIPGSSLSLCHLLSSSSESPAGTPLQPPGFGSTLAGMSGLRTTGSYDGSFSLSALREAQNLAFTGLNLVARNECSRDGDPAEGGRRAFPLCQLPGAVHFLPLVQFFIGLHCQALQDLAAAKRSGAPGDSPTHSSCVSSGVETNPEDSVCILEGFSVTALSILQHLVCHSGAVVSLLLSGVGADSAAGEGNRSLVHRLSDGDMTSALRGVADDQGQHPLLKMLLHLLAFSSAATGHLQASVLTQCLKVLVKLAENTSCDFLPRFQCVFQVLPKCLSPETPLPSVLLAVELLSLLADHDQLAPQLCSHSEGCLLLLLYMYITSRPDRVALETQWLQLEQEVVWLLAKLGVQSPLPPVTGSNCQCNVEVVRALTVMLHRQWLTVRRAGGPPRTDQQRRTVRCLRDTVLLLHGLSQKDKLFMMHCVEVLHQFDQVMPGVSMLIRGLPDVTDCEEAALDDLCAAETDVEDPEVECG

| Compound | pIC50 |
| --- | --- |
| CCOc1ncccc1-c1cc(N2CCOCC2)nc2c(-c3ccn[nH]3)nccc12 [Example 383, 4-(2-ethoxypyridin-3-yl)-2-(morpholin-4-yl)-8-(1H-pyrazol-5-yl)-1,7-naphthyridine] | 6.62 |
| C1=C(c2cc(N3CCOCC3)nc3c(-c4ccn[nH]4)nccc23)CCNC1 [Example 17, 2-(morpholin-4-yl)-8-(1H-pyrazol-5-yl)-4-(1,2,3,6-tetrahydropyridin-4-yl)-1,7-naphthyridine] | 6.73 |
| C[C@@H]1COCCN1c1cc(N(C)C2CC2)c2ccnc(-c3ccn[nH]3)c2n1 [Example 85, N-cyclopropyl-N-methyl-2-[(3R)-3-methylmorpholin-4-yl]-8-(1H-pyrazol-5-yl)-1,7-naphthyridin-4-amine] | 7.92 |
| O=S1(=O)CCC12CN(c1cc(N3CCOCC3)nc3c(-c4ccn[nH]4)nccc13)C2 [Example 425, 4-(1,1-dioxido-1-thia-6-azaspiro[3.3]hept-6-yl)-2-(morpholin-4-yl)-8-(1H-pyrazol-5-yl)-1,7-naphthyridine] | 6.00 |
| COc1ccc(Sc2cc(N3CCOC[C@H]3C)nc3c(-c4ccn[nH]4)nccc23)cc1 [Example 222] | 7.30 |
| Fc1cncc(-c2cc(N3CCOCC3)nc3c(-c4ccn[nH]4)nccc23)c1 [Example 394, 4-(5-fluoropyridin-3-yl)-2-(morpholin-4-yl)-8-(1H-pyrazol-5-yl)-1,7-naphthyridine] | 6.92 |
| Oc1ccc(-c2cc(N3CCOCC3)nc3c(-c4ccn[nH]4)nccc23)cn1 [Example 23, 5-[2-(morpholin-4-yl)-8-(1H-pyrazol-5-yl)-1,7-naphthyridin-4-yl]pyridin-2(1H)-one] | 6.35 |
| Clc1cc(N2CCOCC2)nc2c(-c3cc[nH]n3)nccc12 [Example 62, 4-chloro-2-morpholin-4-yl-8-(1H-pyrazol-3-yl)-[1,7]naphthyridine] | 6.00 |
| CCP(=O)(CC)c1cc(N2CCOC[C@H]2C)nc2c(-c3ccn[nH]3)nccc12 [Example 143, 4-(diethylphosphoryl)-2-[(3R)-3-methylmorpholin-4-yl]-8-(1H-pyrazol-5-yl)-1,7-naphthyridine] | 7.56 |
| CCn1nccc1-c1cc(N2CCOC[C@H]2C)nc2c(-c3ccn[nH]3)nccc12 [Example 69, 4-(1-ethyl-1H-pyrazol-5-yl)-2-[(3R)-3-methylmorpholin-4-yl]-8-(1H-pyrazol-5-yl)-1,7-naphthyridine] | 8.27 |
| NC(=O)c1ccc(-c2cc(N3CCOCC3)nc3c(-c4ccn[nH]4)nccc23)cc1 [Example 296, 4-[2-(morpholin-4-yl)-8-(1H-pyrazol-5-yl)-1,7-naphthyridin-4-yl]benzamide] | 7.11 |
| CS(=O)(=O)Nc1ccccc1-c1cc(N2CCOCC2)nc2c(-c3ccn[nH]3)nccc12 [Example 322, N-{2-[2-(morpholin-4-yl)-8-(1H-pyrazol-5-yl)-1,7-naphthyridin-4-yl]phenyl}methanesulfonamide] | 7.09 |
| c1cc2c(C3CCOCC3)cc(N3CCOCC3)nc2c(-c2cc[nH]n2)n1 [Example 60, 2-(morpholin-4-yl)-8-(1H-pyrazol-5-yl)-4-(tetrahydro-2H-pyran-4-yl)-1,7-naphthyridine] | 7.62 |
| C[C@@H]1COCCN1c1cc(-c2ccn(C3CCOCC3)n2)c2ccnc(-c3ccn[nH]3)c2n1 [Example 246, 2-[(3R)-3-methylmorpholin-4-yl]-8-(1H-pyrazol-5-yl)-4-[1-(tetrahydro-2H-pyran-4-yl)-1H-pyrazol-3-yl]-1,7-naphthyridine] | 7.17 |
| CSc1ncc(-c2cc(N3CCOCC3)nc3c(-c4ccn[nH]4)nccc23)cn1 [Example 395, 4-[2-(methylsulfanyl)pyrimidin-5-yl]-2-(morpholin-4-yl)-8-(1H-pyrazol-5-yl)-1,7-naphthyridine] | 6.83 |
| Oc1ccc(-c2cc(N3CCOCC3)nc3c(-c4ccn[nH]4)nccc23)cc1 [Example 326, 4-[2-(morpholin-4-yl)-8-(1H-pyrazol-5-yl)-1,7-naphthyridin-4-yl]phenol] | 7.14 |
| FC(F)(F)c1ccc(-c2cc(N3CCOCC3)nc3c(-c4ccn[nH]4)nccc23)cc1 [Example 302, 2-(morpholin-4-yl)-8-(1H-pyrazol-5-yl)-4-[4-(trifluoromethyl)phenyl]-1,7-naphthyridine] | 6.73 |
| Nc1ncccc1-c1cc(N2CCOCC2)nc2c(-c3ccn[nH]3)nccc12 [Example 402, 3-[2-(morpholin-4-yl)-8-(1H-pyrazol-5-yl)-1,7-naphthyridin-4-yl]pyridin-2-amine] | 6.52 |

| Compound | pIC50 |
| --- | --- |
| C[C@@H]1COCCN1c1cc(-c2cncn2C)c2ccnc(-c3ccn[nH]3)c2n1 [Example 70, 4-(1-methyl-1H-imidazol-5-yl)-2-[(3R)-3-methylmorpholin-4-yl]-8-(1H-pyrazol-5-yl)-1,7-naphthyridine] | 8.29 |
| COC1(C)CN(c2cc(N3CCOCC3)nc3c(-c4ccn[nH]4)nccc23)C1 [Example 184, 4-(3-methoxy-3-methylazetidin-1-yl)-2-(morpholin-4-yl)-8-(1H-pyrazol-5-yl)-1,7-naphthyridine] | 6.12 |
| C[C@@H]1CN(c2cc(N3CCOCC3)nc3c(-c4ccn[nH]4)nccc23)CCO1 [Example 162, 4-[(2R)-2-methylmorpholin-4-yl]-2-(morpholin-4-yl)-8-(1H-pyrazol-5-yl)-1,7-naphthyridine] | 7.00 |
| COc1cc(N2CCOCC2)nc2c(-c3cc[nH]n3)nccc12 [Example 44, 4-methoxy-2-(morpholin-4-yl)-8-(1H-pyrazol-3-yl)-[1,7]naphthyridine] | 6.27 |
| C[C@@H]1COCCN1c1cc(-c2ccc(F)nc2F)c2ccnc(-c3ccn[nH]3)c2n1 [Example 228, 4-(2,6-difluoropyridin-3-yl)-2-[(3R)-3-methylmorpholin-4-yl]-8-(1H-pyrazol-5-yl)-1,7-naphthyridine] | 7.52 |
| Cc1ncc(-c2cc(N3CCOC[C@H]3C)nc3c(-c4ccn[nH]4)nccc23)s1 [Example 78, 2-[(3R)-3-methylmorpholin-4-yl]-4-(2-methyl-1,3-thiazol-5-yl)-8-(1H-pyrazol-5-yl)-1,7-naphthyridine] | 7.96 |
| c1ccc(-c2cc(N3CCOCC3)nc3c(-c4cc[nH]n4)nccc23)cc1 [Example 11, 2-(morpholin-4-yl)-4-phenyl-8-(1H-pyrazol-3-yl)-[1,7]naphthyridine] | 6.87 |
| Cc1nn(C)c(C)c1-c1cc(N2CCOCC2)nc2c(-c3ccn[nH]3)nccc12 [Example 273, 2-(morpholin-4-yl)-8-(1H-pyrazol-5-yl)-4-(1,3,5-trimethyl-1H-pyrazol-4-yl)-1,7-naphthyridine] | 7.85 |
| Cc1cncc(-c2cc(N3CCOCC3)nc3c(-c4ccn[nH]4)nccc23)c1 [Example 352, 4-(5-methylpyridin-3-yl)-2-(morpholin-4-yl)-8-(1H-pyrazol-5-yl)-1,7-naphthyridine] | 6.76 |
| CC(C)Oc1cc(N2CCOCC2)nc2c(-c3cc[nH]c3)nccc12 [Example 68, 2-(morpholin-4-yl)-4-(propan-2-yloxy)-8-(1H-pyrrol-3-yl)-1,7-naphthyridine] | 6.23 |
| C[C@@H]1COCCN1c1cc(-c2ccn(CCF)n2)c2ccnc(-c3ccn[nH]3)c2n1 [Example 158, 4-[1-(2-fluoroethyl)-1H-pyrazol-3-yl]-2-[(3R)-3-methylmorpholin-4-yl]-8-(1H-pyrazol-5-yl)-1,7-naphthyridine] | 7.87 |
| CC(C)n1ccc(-c2cc(N3CCOC[C@H]3C)nc3c(-c4ccn[nH]4)nccc23)n1 [Example 263, 2-[(3R)-3-methylmorpholin-4-yl]-4-[1-(propan-2-yl)-1H-pyrazol-3-yl]-8-(1H-pyrazol-5-yl)-1,7-naphthyridine] | 7.71 |
| CCOc1cc(N2CCOCC2)nc2c(-c3cc[nH]n3)nccc12 [Example 43, 4-ethoxy-2-(morpholin-4-yl)-8-(1H-pyrazol-3-yl)-[1,7]naphthyridine] | 6.31 |
| Cc1cc(COc2cc(N3CCOCC3)nc3c(-c4ccn[nH]4)nccc23)no1 [Example 49, 4-[(5-methyl-1,2-oxazol-3-yl)methoxy]-2-(morpholin-4-yl)-8-(1H-pyrazol-5-yl)-1,7-naphthyridine] | 6.70 |
| CP(C)(=O)c1cc(N2CCOCC2)nc2c(-c3ccn[nH]3)nccc12 [Example 177, 4-(dimethylphosphoryl)-2-(morpholin-4-yl)-8-(1H-pyrazol-5-yl)-1,7-naphthyridine] | 6.60 |
| C[C@@H]1COCCN1c1cc(N)c2ccnc(-c3ccn[nH]3)c2n1 [Example 267, 2-[(3R)-3-methylmorpholin-4-yl]-8-(1H-pyrazol-5-yl)-1,7-naphthyridin-4-amine] | 6.00 |
| Cc1ccc2c(c1)cc(-c1cc(N3CCOCC3)nc3c(-c4ccn[nH]4)nccc13)n2C(=O)OC(C)(C)C [Example 377, tert-butyl 5-methyl-2-[2-(morpholin-4-yl)-8-(1H-pyrazol-5-yl)-1,7-naphthyridin-4-yl]-1H-indole-1-carboxylate] | 5.52 |

same assay, conditions: tracer B, TR-FRET; read-out: ATR binding (tracer B) IC50

| Compound | pIC50 |
| --- | --- |
| C1=C(c2cc(N3CCOCC3)nc3c(-c4ccn[nH]4)nccc23)CCNC1 [Example 17, 2-(morpholin-4-yl)-8-(1H-pyrazol-5-yl)-4-(1,2,3,6-tetrahydropyridin-4-yl)-1,7-naphthyridine] | 6.93 |
| Clc1cc(N2CCOCC2)nc2c(-c3cc[nH]n3)nccc12 [Example 62, 4-chloro-2-morpholin-4-yl-8-(1H-pyrazol-3-yl)-[1,7]naphthyridine] | 6.15 |
| c1cc2c(C3CCOCC3)cc(N3CCOCC3)nc2c(-c2cc[nH]n2)n1 [Example 60, 2-(morpholin-4-yl)-8-(1H-pyrazol-5-yl)-4-(tetrahydro-2H-pyran-4-yl)-1,7-naphthyridine] | 7.80 |
| COc1cc(N2CCOCC2)nc2c(-c3cc[nH]n3)nccc12 [Example 44, 4-methoxy-2-(morpholin-4-yl)-8-(1H-pyrazol-3-yl)-[1,7]naphthyridine] | 6.49 |
| c1ccc(-c2cc(N3CCOCC3)nc3c(-c4cc[nH]n4)nccc23)cc1 [Example 11, 2-(morpholin-4-yl)-4-phenyl-8-(1H-pyrazol-3-yl)-[1,7]naphthyridine] | 7.06 |
| CC(C)Oc1cc(N2CCOCC2)nc2c(-c3cc[nH]c3)nccc12 [Example 68, 2-(morpholin-4-yl)-4-(propan-2-yloxy)-8-(1H-pyrrol-3-yl)-1,7-naphthyridine] | 6.33 |
| CCOc1cc(N2CCOCC2)nc2c(-c3cc[nH]n3)nccc12 [Example 43, 4-ethoxy-2-(morpholin-4-yl)-8-(1H-pyrazol-3-yl)-[1,7]naphthyridine] | 6.59 |
